Results published in US10724072B2, “Use of phospho-Akt as a biomarker of drug response” (Basilea Pharmaceutica AG, priority 2011, dated 2020).

Columns and labels:
Assay type in all cases: cell-based, human
[1] = tested on: LXFE 397; assay: Colony outgrowth assay, patient-derived lung tumour xenograft cells; conditions: LXFE 397, ex vivo colony outgrowth
Description: (§1) Single cell suspensions of patient-derived tumour xenografts (maintained in nude mice) were prepared. For colony outgrowth assays, cells were plated in soft agar in 24-well plates according to the assay introduced by Hamburger & Salmon (Primary bioassay of human tumour stem cells, Science, 1977, 197:461-463). 2×10^4-6×10^4 cells in 0.2 mL medium containing 0.4% agar were plated out on a bottom layer of 0.75% agar. Test compounds were applied in 0.2 mL culture medium. Every 24-well plate contained untreated controls and samples in triplicates. Cultures were incubated at 37° C. and 7.5% CO2 for 5-28 days. 24 hours prior to analysis, vital colonies were stained with a solution of metabolizable tetrazolium salt (Alley M C et al, Life Sci. 1982, 31:3071-3078) and were counted with an automatic image analysis system (Omnicon 3600, Biosys GmbH).
(§2) Relative drug effects were expressed by the ratio of the mean number of colonies in the treated wells and the control wells. IC70-values were determined by plotting compound concentrations versus relative colony counts.
Based on colony outgrowth assays, using tumour cells derived from 8 patient-derived tumours maintained as xenografts in mice, BAL27862-sensitive or resistant tumour cells were identified from gastric cancer, colorectal cancer, melanoma, and lung cancer (see Table 1). […]

[2] = tested on: MEXF 276; assay: Colony outgrowth assay, patient-derived melanoma xenograft cells; parameters: key to Response to vinblastine: BAL27862-sensitive tumour cells were those that had IC70 values in the low nanomolar range; BAL27862-resistant tumour cells had IC70 values >600 nanomolar; conditions: MEXF 276, ex vivo colony outgrowth
Description: as §1, §2
(§3) Based on colony outgrowth assays, using tumour cells derived from 8 patient-derived tumours maintained as xenografts in mice, BAL27862-sensitive or resistant tumour cells were identified from gastric cancer, colorectal cancer, melanoma, and lung cancer (see Table 1). In this table, BAL27862-sensitive tumour cells were those that had IC70 values in the low nanomolar range, while BAL27862-resistant tumour cells had IC70 values >600 nanomolar. Paclitaxel and vinblastine data, using the same ex vivo assay, was available for 7 of the 8 tumour models. Of these 7 models, all were resistant to treatment with paclitaxel, while 6 were sensitive to treatment with vinblastine.

[3] = tested on: GFX 97; assay: Colony outgrowth assay, patient-derived gastric tumour xenograft cells; parameters: key to Response to vinblastine: BAL27862-sensitive tumour cells were those that had IC70 values in the low nanomolar range; BAL27862-resistant tumour cells had IC70 values >600 nanomolar; conditions: GFX 97, ex vivo colony outgrowth
Description: as §1, §2, §3

[4] = tested on: CXF 1103; assay: Colony outgrowth assay, patient-derived colorectal cancer xenograft cells; parameters: key to Response to BAL27862: BAL27862-sensitive tumour cells were those that had IC70 values in the low nanomolar range; BAL27862-resistant tumour cells had IC70 values >600 nanomolar; conditions: CXF 1103, ex vivo colony outgrowth
Description: as §1, §2, §3

[5] = tested on: HeLa cervical cancer cells; assay: Immunofluorescent staining of microtubules (anti-alpha-tubulin) in cultured cells; conditions: 50 nM, 24 hours treatment
Description: (§4) A549 human non-small cell lung cancer (NSCLC, ATCC reference number CCL-185) cells, HeLa cervical cancer cells (ATCC reference number CCL-2) and SKBR3 breast carcinoma cells (ATCC reference number HTB-30) were seeded at densities of 50% on round microscope coverslips and cultured for 24 hours in RPMI-1640 containing 10% FCS (also referred to as FBS) at 37° C., 5% CO2. Compounds to be tested were dissolved in DMSO. The cell culture medium was replaced with medium containing the diluted compound(s) (paclitaxel, vinblastine, colchicine and nocodazole were purchased from Sigma-Aldrich) or vehicle. After treatment for the times indicated in the Brief Description of the Figures, coverslips were washed and cells were fixed in methanol/acetone (1:1) for 5 minutes at room temperature and subsequently incubated in blocking buffer (0.5% BSA and 0.1% TX-100 in PBS) for 30 minutes at room temperature. Specimens were then incubated with anti-alpha-tubulin antibody (Sigma, 1:2000) for 1 hour at room temperature in blocking buffer. After several washing steps cells were incubated with AlexaFluor-488 goat-anti-mouse IgG (Molecular Probes, 1:3000) for 1 hour at room temperature followed by several washing steps with blocking buffer. Specimens were then mounted with ProLong Gold antifade (Molecular Probes), sealed with nail polish and examined with a Leica immunofluorescence microscope. Images were captured with a cooled CCD-camera and processed by ImageJ software.

[6] = tested on: SKBR3 breast cancer cells; assay: as above; conditions: SKBR3, 50 nM, 24 hours treatment
Description: as §4

[7] = tested on: A549 NSCLC cells; assay: as above; conditions: for Microtubule phenotype of mitotic or G2/M arrested cells: 24 hours treatment; for Effect on microtubule phenotype induced by BAL27862: 24 hours BAL27862 with the final 4 hours including the agent
Description: as §4

[8] = tested on: CXF 243; assay: Colony outgrowth assay, patient-derived colorectal cancer xenograft cells; parameters: key to Response to vinblastine: BAL27862-sensitive tumour cells were those that had IC70 values in the low nanomolar range; BAL27862-resistant tumour cells had IC70 values >600 nanomolar; conditions: CXF 243, ex vivo colony outgrowth
Description: as §1, §2, §3

[9] = tested on: GFX 251; assay: Colony outgrowth assay, patient-derived gastric tumour xenograft cells; parameters: key to Response to vinblastine / Response to BAL27862: BAL27862-sensitive tumour cells were those that had IC70 values in the low nanomolar range; BAL27862-resistant tumour cells had IC70 values >600 nanomolar; conditions: GFX 251, ex vivo colony outgrowth
Description: as §1, §2, §3

[10] = tested on: MEXF 1341; assay: Colony outgrowth assay, patient-derived melanoma xenograft cells; parameters: key to Response to BAL27862 / Response to vinblastine: BAL27862-sensitive tumour cells were those that had IC70 values in the low nanomolar range; BAL27862-resistant tumour cells had IC70 values >600 nanomolar; conditions: MEXF 1341, ex vivo colony outgrowth
Description: as §1, §2, §3

[11] = tested on: LXFE 211; assay: Colony outgrowth assay, patient-derived lung tumour xenograft cells; parameters: key to Response to BAL27862 / Response to vinblastine: BAL27862-sensitive tumour cells were those that had IC70 values in the low nanomolar range; BAL27862-resistant tumour cells had IC70 values >600 nanomolar; conditions: LXFE 211, ex vivo colony outgrowth
Description: as §1, §2, §3

N#CCCNc1nonc1-c1nc2ccccc2n1CC(=O)c1ccc(N)cc1 [BAL27862, 3-(4-{1-[2-(4-Amino-phenyl)-2-oxo-ethyl]-1H-benzoimidazol-2-yl}-furazan-3-ylamino)-propionitrile]
IC70 BAL27862 [1]: >3500 nM
Response to BAL27862 [1]: resistant (BAL27862-resistant tumour cells had IC70 values >600 nanomolar)
IC70 BAL27862 [2]: >3500 nM
Response to BAL27862 [2]: resistant (BAL27862-resistant tumour cells had IC70 values >600 nanomolar)
IC70 BAL27862 [3]: >3500 nM
Response to BAL27862 [3]: resistant (BAL27862-resistant tumour cells had IC70 values >600 nanomolar)
IC70 BAL27862 [4]: 22 nM
Response to BAL27862 [4]: sensitive
Microtubule phenotype of mitotic or G2/M arrested cells [5]: dot-like structures
Microtubule phenotype of mitotic or G2/M arrested cells [6]: dot-like structures
Microtubule phenotype of mitotic or G2/M arrested cells ([7]; A549, 50 nM): dot-like structures
Effect on microtubule phenotype induced by conventional microtubule targeting agents ([7]; A549, 24 hours vinblastine, colchicine, paclitaxel or nocodazole with the final 4 hours including BAL27862): disruption of the microtubule structures
IC70 BAL27862 [8]: 696 nM
Response to BAL27862 [8]: resistant (BAL27862-resistant tumour cells had IC70 values >600 nanomolar)
IC70 BAL27862 [9]: 485 nM
Response to BAL27862 [9]: sensitive
IC70 BAL27862 [10]: 25 nM
Response to BAL27862 [10]: sensitive
IC70 BAL27862 [11]: 21 nM
Response to BAL27862 [11]: sensitive

Nc1ccc(C(=O)Cn2c(-c3nonc3N)nc3ccccc32)cc1 [Compound B, 2-[2-(4-Amino-furazan-3-yl)-benzoimidazol-1-yl]-1-(4-amino-phenyl)-ethanone]
Microtubule phenotype of mitotic or G2/M arrested cells ([7]; A549, 80 nM): dot-like structures

N#CCCNc1nonc1-c1nc2ccccc2n1CC(=O)c1ccc(N)nc1 [Compound C, 3-(4-{1-[2-(6-Amino-pyridin-3-yl)-2-oxo-ethyl]-1H-benzoimidazol-2-yl}-furazan-3-ylamino)-propionitrile]
Microtubule phenotype of mitotic or G2/M arrested cells ([7]; A549, 20 nM): dot-like structures

COc1cc2c(c(OC)c1OC)-c1ccc(OC)c(=O)cc1[C@@H](NC(C)=O)CC2 [colchicine, reference compound]
Effect on microtubule phenotype induced by BAL27862 ([7]; A549): no impact

COC(=O)Nc1nc2ccc(C(=O)c3cccs3)cc2[nH]1 [nocodazole, reference compound]
Effect on microtubule phenotype induced by BAL27862 ([7]; A549): no impact

CC(=O)O[C@H]1C(=O)[C@@]2(C)[C@H]([C@H](OC(=O)c3ccccc3)[C@]3(O)C[C@H](OC(=O)[C@H](O)[C@@H](NC(=O)c4ccccc4)c4ccccc4)C(C)=C1C3(C)C)[C@]1(OC(C)=O)CO[C@@H]1C[C@@H]2O [paclitaxel, reference compound]
Response to paclitaxel [2]: resistant (BAL27862-resistant tumour cells had IC70 values >600 nanomolar)
Response to paclitaxel [3]: resistant (BAL27862-resistant tumour cells had IC70 values >600 nanomolar)
Response to paclitaxel [4]: resistant (BAL27862-resistant tumour cells had IC70 values >600 nanomolar)
Effect on microtubule phenotype induced by BAL27862 ([7]; A549): no impact
Response to paclitaxel [8]: resistant (BAL27862-resistant tumour cells had IC70 values >600 nanomolar)
Response to paclitaxel [9]: resistant (BAL27862-resistant tumour cells had IC70 values >600 nanomolar)
Response to paclitaxel [10]: resistant (BAL27862-resistant tumour cells had IC70 values >600 nanomolar)
Response to paclitaxel [11]: resistant (BAL27862-resistant tumour cells had IC70 values >600 nanomolar)

CC[C@]1(O)C[C@@H]2CN(CCc3c([nH]c4ccccc34)[C@@](C(=O)OC)(c3cc4c(cc3OC)N(C)[C@H]3[C@@](O)(C(=O)OC)[C@H](OC(C)=O)[C@]5(CC)C=CCN6CC[C@]43[C@@H]65)C2)C1 [vinblastine, reference compound]
Response to vinblastine [2]: sensitive
Response to vinblastine [3]: sensitive
Response to vinblastine [4]: resistant (BAL27862-resistant tumour cells had IC70 values >600 nanomolar)
Effect on microtubule phenotype induced by BAL27862 ([7]; A549): no impact
Response to vinblastine [8]: sensitive
Response to vinblastine [9]: sensitive
Response to vinblastine [10]: sensitive
Response to vinblastine [11]: sensitive
